Measured values as given in US4110327A, “2,3 Diketo-piperazinocarbonylamino alkanoic acids and derivatives” (Toyama Chemical Co., Ltd., priority 1974, dated 1978).

Tests used:
Proteus mirabilis = test: MIC against clinical isolates; assay type: cell-based; conditions: clinical isolate, unit assumed
Proteus vulgaris = test: MIC against clinical isolates; assay type: cell-based; conditions: clinical isolate, unit assumed
Klebsiella pneumoniae [1] = test: MIC against standard strain, plate method; assay type: cell-based; conditions: unit assumed
Summary of the method: (§1)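 Minimum inhibitory concentrations were determined on agar plates of heart infusion medium (pH 7.4) inoculated with 10^4 cells per plate.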

Proteus vulgaris 3027 = test: MIC against standard strain, plate method; assay type: cell-based; conditions: Proteus vulgaris 3027, standard strain; unit assumed
Summary of the method: as §1

[2] = tested on: Pseudomonas aeruginosa I.F.O.; test: MIC against standard strain, plate method; assay type: cell-based; conditions: unit assumed
Summary of the method: as §1

Escherichia coli NIHJ = test: MIC against standard strain, plate method; assay type: cell-based; conditions: unit assumed
Summary of the method: as §1

[3] = tested on: Staphylococcus aureus 209p; test: MIC against standard strain, plate method; assay type: cell-based; conditions: unit assumed
Summary of the method: as §1

Proteus morganii = test: MIC against clinical isolates; assay type: cell-based; conditions: clinical isolate, unit assumed
β-lactamase = test: Resistant activity against β-lactamase, iodometric assay; assay type: biochemical, Pseudomonas aeruginosa GN 238; conditions: relative to Potassium Penicillin G = 100
Method: (3) Resistant activity against β-lactamase, Pseudomonas aergionan GN 238:
The resistant activity of each compound against β-lactamase was measured in the manner described below.
β-Lactamase was prepared from Pseudomonas aeruginosa GN 238. This microorganism was cultured in 100 ml of a medium containing 2 g of yeast extract, 10 g of polypeptone, 2 g of glucose, 7 g of disodium hydrogen phosphate, 2 g of potassium dihydrogen phosphate, 1.2 g of ammonium sulfate and 0.4 g of magnesium sulfate, per liter, in a 500-ml Erlenmeyer flask for 6 hrs. at 37° C with shaking. The resulting cells were collected by centrifugation (5,000 r.p.m. × 10 min.), washed three times with 0.1 M phosphate buffer (pH 7.0). Subsequently, the cells were subjected to sonication (20 KHz, 20 min.) and then centrifuged at 15,000 r.p.m. for 60 min. By using the supernatant of enzyme fluid, the resistance of each compound against β-lactamase was determined by the iodometric assay method. Each numeral shown in Table 7 is a relative activity value calculated by assuming as 100 the activity of the control Potassium Penicillin G.

Staphylococcus aureus = test: MIC against clinical isolates; assay type: cell-based; conditions: unit assumed
Pseudomonas aeruginosa = test: MIC against clinical isolates; assay type: cell-based; conditions: unit assumed
Escherichia coli = test: MIC against clinical isolates; assay type: cell-based; conditions: unit assumed
Klebsiella pneumoniae [4] = test: MIC against clinical isolates; assay type: cell-based; conditions: unit assumed
Proteus rettgeri = test: MIC against clinical isolates; assay type: cell-based; conditions: clinical isolate, unit assumed
Shigella flexneri = test: MIC against clinical isolates; assay type: cell-based; conditions: unit assumed
Method: (§2) The minimum inhibitory concentrations (MIC) was determined by the plate method disclosed in "Chemotherapy" (Japan), Vol. 16, (1968), pages 98 - 99. The culture medium used was a Heart infusion agar (pH 7.4). The number of the cells per plate used in the inoculum as 10^4 (10^6 cells/ml).
(§3) MIC was determined in the same manner as in the preceding paragraph (1).

Shigella sonnei = test: MIC against clinical isolates; assay type: cell-based; conditions: unit assumed
Method: as §2, §3

Salmonella typhi-murium = test: MIC against clinical isolates; assay type: cell-based; conditions: unit assumed
Salmonella typhi = test: MIC against clinical isolates; assay type: cell-based; conditions: unit assumed
[5] = clinical isolate GN (number not given; Table 5-3)

CCCCCCCCN1CCN(C(=O)N[C@@H](C(=O)N[C@@H]2C(=O)N3[C@@H]2SC(C)(C)[C@@H]3C(=O)O)c2ccccc2)CC1=O [compound 30]
1.57 µg/mL: MIC (Staphylococcus aureus; clinical isolate MS 8588) | MIC (Staphylococcus aureus; clinical isolate MS 8596) | MIC (Staphylococcus aureus; clinical isolate MS 8684) | MIC (Staphylococcus aureus; clinical isolate MS 8713)
3.13 µg/mL: MIC (Proteus mirabilis) | MIC (Proteus vulgaris) | MIC (Proteus vulgaris 3027) | MIC (Proteus morganii) | MIC (Staphylococcus aureus; clinical isolate F-1) | MIC (Staphylococcus aureus; clinical isolate F-4)
12.5 µg/mL: MIC (Pseudomonas aeruginosa; clinical isolate GN 2987) | MIC (Escherichia coli; clinical isolate GN 3435) | MIC (Escherichia coli; clinical isolate K-1) | MIC (Escherichia coli; clinical isolate K-4) | MIC (Proteus rettgeri)
3%: Relative activity (β-lactamase)
< 1.57 µg/mL: MIC (Escherichia coli NIHJ) | MIC [3]
0.79 µg/mL: MIC (Staphylococcus aureus; clinical isolate F-2) | MIC (Staphylococcus aureus; clinical isolate F-3)
25 µg/mL: MIC [2] | MIC (Pseudomonas aeruginosa; clinical isolate GN 82) | MIC (Pseudomonas aeruginosa; clinical isolate GN 163) | MIC (Pseudomonas aeruginosa; clinical isolate GN 1091) | MIC (Escherichia coli; clinical isolate GN 3452) | MIC (Escherichia coli; clinical isolate GN 3481) | MIC (Escherichia coli; clinical isolate K-2) | MIC (Klebsiella pneumoniae [4]; clinical isolate GN 917) | MIC (Klebsiella pneumoniae [4]; clinical isolate GN 3850)
> 200 µg/mL: MIC (Escherichia coli; clinical isolate GN 3611) | MIC (Escherichia coli; clinical isolate K-3)
50 µg/mL: MIC (Pseudomonas aeruginosa; clinical isolate GN 221) | MIC (Pseudomonas aeruginosa; clinical isolate GN 376) | MIC (Pseudomonas aeruginosa; clinical isolate GN 383) | MIC (Pseudomonas aeruginosa; clinical isolate GN 1035) | MIC (Pseudomonas aeruginosa; clinical isolate GN 2565) | MIC (Pseudomonas aeruginosa; [5]) | MIC (Pseudomonas aeruginosa; clinical isolate S-1) | MIC (Pseudomonas aeruginosa; clinical isolate S-2) | MIC (Pseudomonas aeruginosa; clinical isolate S-4) | MIC (Escherichia coli; clinical isolate GN 3465)
6.25 µg/mL: MIC (Klebsiella pneumoniae [1])
< 0.4 µg/mL: MIC (Staphylococcus aureus; clinical isolate MS 8619)
100 µg/mL: MIC (Staphylococcus aureus; clinical isolate F-5) | MIC (Pseudomonas aeruginosa; clinical isolate S-3) | MIC (Klebsiella pneumoniae [4]; clinical isolate GN 4081) | MIC (Klebsiella pneumoniae [4]; clinical isolate GN 4117)

CCCCCCN1CCN(C(=O)N[C@@H](C(=O)N[C@@H]2C(=O)N3[C@@H]2SC(C)(C)[C@@H]3C(=O)O)c2ccccc2)C(=O)C1=O (single isomer, unassigned) [compound 46]
3.13 µg/mL: MIC (Staphylococcus aureus; clinical isolate MS 8596) | MIC (Escherichia coli; clinical isolate GN 3481) | MIC (Proteus rettgeri)
0.4 µg/mL: MIC (Klebsiella pneumoniae [1]) | MIC (Proteus vulgaris 3027)
0.2 µg/mL: MIC [3]
1.57 µg/mL: MIC (Salmonella typhi; clinical isolate SL 819)
50 µg/mL: MIC (Salmonella typhi-murium; clinical isolate SL 2136) | MIC (Pseudomonas aeruginosa; clinical isolate GN 1035) | MIC (Pseudomonas aeruginosa; clinical isolate S-1) | MIC (Pseudomonas aeruginosa; clinical isolate S-2) | MIC (Pseudomonas aeruginosa; clinical isolate S-3) | MIC (Pseudomonas aeruginosa; clinical isolate S-4) | MIC (Escherichia coli; clinical isolate K-3)
25 µg/mL: MIC (Pseudomonas aeruginosa; clinical isolate GN 376) | MIC (Pseudomonas aeruginosa; clinical isolate GN 383)
12%: Relative activity (β-lactamase)
12.5 µg/mL: MIC (Shigella sonnei; clinical isolate JS 11232) | MIC (Pseudomonas aeruginosa; clinical isolate GN 221) | MIC (Pseudomonas aeruginosa; clinical isolate GN 1091) | MIC (Pseudomonas aeruginosa; clinical isolate GN 2565) | MIC (Pseudomonas aeruginosa; [5]) | MIC (Klebsiella pneumoniae [4]; clinical isolate GN 4081) | MIC (Klebsiella pneumoniae [4]; clinical isolate GN 4117)
0.79 µg/mL: MIC (Shigella flexneri; clinical isolate JS 11839) | MIC (Shigella sonnei; clinical isolate JS 11755) | MIC (Staphylococcus aureus; clinical isolate F-3) | MIC (Salmonella typhi; clinical isolate SL 2169) | MIC (Escherichia coli; clinical isolate GN 3452) | MIC (Escherichia coli; clinical isolate K-1) | MIC (Escherichia coli; clinical isolate K-2) | MIC (Klebsiella pneumoniae [4]; clinical isolate GN 917)
< 0.1 µg/mL: MIC (Escherichia coli NIHJ)
< 0.4 µg/mL: MIC (Proteus mirabilis) | MIC (Proteus vulgaris) | MIC (Salmonella typhi-murium; clinical isolate SL 858) | MIC (Proteus morganii) | MIC (Staphylococcus aureus; clinical isolate MS 8619) | MIC (Escherichia coli; clinical isolate GN 3435) | MIC (Escherichia coli; clinical isolate K-4)
6.25 µg/mL: MIC (Shigella flexneri; clinical isolate JS 11215) | MIC [2] | MIC (Staphylococcus aureus; clinical isolate F-1) | MIC (Staphylococcus aureus; clinical isolate F-4) | MIC (Staphylococcus aureus; clinical isolate MS 8713) | MIC (Pseudomonas aeruginosa; clinical isolate GN 82) | MIC (Pseudomonas aeruginosa; clinical isolate GN 163) | MIC (Pseudomonas aeruginosa; clinical isolate GN 2987) | MIC (Escherichia coli; clinical isolate GN 3465)
> 200 µg/mL: MIC (Staphylococcus aureus; clinical isolate F-5) | MIC (Escherichia coli; clinical isolate GN 3611)
